Assay results reported in PubChem BioAssay (NCI).
Values joined by “and” are separate entries in the source; they are usually repeats but may differ in a detail not shown here. Equal entries are not always repeated.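 Assay format: 96-well plates, 48-hour exposure. GI50 is the concentration that inhibits growth by half. TGI denotes the concentration required for complete inhibition of growth.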

Columns and labels:
Test in all cases: inhibition of tumour cell growth, NCI panel, 48 h
SR leukemia = test system: SR leukemia
K-562 leukemia = test system: K-562 leukemia
A549 NSCLC = test system: A549 NSCLC
HCC-2998 colon = test system: HCC-2998 colon
NCI-H226 lung = test system: NCI-H226 lung
LOX IMVI melanoma = test system: LOX IMVI melanoma
SK-OV-3 ovarian = test system: SK-OV-3 ovarian
SF-295 CNS = test system: SF-295 CNS
786-0 renal = test system: 786-0 renal
KM12 colon = test system: KM12 colon

**Q.** Which results are given for `C=C1C(=O)O[C@H]2[C@H]1CC/C(COC(=O)NCCc1ccc(OC)cc1)=C\CC[C@@]1(C)O[C@@H]21`?
**A.** GI50 (SR leukemia): 2.07 µM; TGI (SR leukemia): 7.87 µM; GI50 (K-562 leukemia): 3.08 µM; TGI (K-562 leukemia): 10.3 µM; GI50 (A549 NSCLC): 13.2 µM; TGI (A549 NSCLC): 28.4 µM; GI50 (HCC-2998 colon): 2.48 µM; TGI (HCC-2998 colon): 5.63 µM; GI50 (NCI-H226 lung): 4.11 µM; TGI (NCI-H226 lung): 16.4 µM; GI50 (LOX IMVI melanoma): 1.38 µM; TGI (LOX IMVI melanoma): 2.89 µM; GI50 (SK-OV-3 ovarian): 23 µM; TGI (SK-OV-3 ovarian): 65.8 µM; GI50 (SF-295 CNS): 13.5 µM; TGI (SF-295 CNS): 27.4 µM; GI50 (786-0 renal): 1.76 µM; TGI (786-0 renal): 4.22 µM; GI50 (KM12 colon): 8.36 µM; TGI (KM12 colon): 24.4 µM

**Q.** For `COc1cc(N2CCC(N(C)C)CC2)ccc1Nc1ncc(Cl)c(Nc2ccccc2P(C)(C)=O)n1`, which GI50 (SR leukemia) is on record?
**A.** < 0.0113 µM and 0.0295 µM

**Q.** And the TGI (K-562 leukemia)?
**A.** > 100 µM

**Q.** And the GI50 (A549 NSCLC)?
**A.** 0.617 µM and 0.218 µM

**Q.** And the TGI (A549 NSCLC)?
**A.** 8.54 µM and > 7.6 µM

**Q.** And the GI50 (HCC-2998 colon)?
**A.** 3.6 µM and 0.446 µM

**Q.** And the TGI (HCC-2998 colon)?
**A.** > 52.2 µM

**Q.** And the GI50 (NCI-H226 lung)?
**A.** 0.454 µM and 0.0582 µM

**Q.** What about the TGI (NCI-H226 lung) of the same compound?
**A.** 2.76 µM and 4.21 µM

**Q.** What about the GI50 (LOX IMVI melanoma) of the same compound?
**A.** 0.394 µM and 0.175 µM

**Q.** And the TGI (LOX IMVI melanoma)?
**A.** 1.82 µM and 0.68 µM

**Q.** And the GI50 (SK-OV-3 ovarian)?
**A.** 0.517 µM and 0.43 µM

**Q.** What about the TGI (SK-OV-3 ovarian) of the same compound?
**A.** 2.01 µM and > 4.16 µM

**Q.** What about the GI50 (SF-295 CNS) of the same compound?
**A.** 1.81 µM and 0.409 µM

**Q.** And the TGI (SF-295 CNS)?
**A.** 15.8 µM and > 5.44 µM

**Q.** And the GI50 (786-0 renal)?
**A.** 1.12 µM and 0.483 µM

**Q.** And the TGI (786-0 renal)?
**A.** 10 µM and > 6.3 µM

**Q.** What about the TGI (KM12 colon) of the same compound?
**A.** > 30 µM

**Q.** Which results are given for `CC1(C)OC2C(CO)OC(n3ccc(=O)[nH]c3=O)C2O1` (stereo unspecified)?
**A.** TGI (SR leukemia): > 100 µM; TGI (K-562 leukemia): > 100 µM; TGI (A549 NSCLC): > 100 µM; TGI (HCC-2998 colon): > 100 µM; TGI (NCI-H226 lung): > 100 µM; TGI (LOX IMVI melanoma): > 100 µM; TGI (SK-OV-3 ovarian): > 100 µM; TGI (SF-295 CNS): > 100 µM; TGI (786-0 renal): > 100 µM

**Q.** How did the GI50 (SR leukemia) turn out when `O=C(Nc1ccccc1Cl)c1cnc2ccc(C3CCNCC3)cn12` was run?
**A.** 37.2 µM

**Q.** And the TGI (SR leukemia)?
**A.** > 100 µM

**Q.** And the GI50 (K-562 leukemia)?
**A.** 8.23 µM

**Q.** What about the TGI (K-562 leukemia) of the same compound?
**A.** > 100 µM

**Q.** And the GI50 (A549 NSCLC)?
**A.** 11.5 µM

**Q.** And the TGI (A549 NSCLC)?
**A.** > 100 µM

**Q.** What about the GI50 (HCC-2998 colon) of the same compound?
**A.** > 100 µM

**Q.** And the TGI (HCC-2998 colon)?
**A.** > 100 µM

**Q.** And the GI50 (NCI-H226 lung)?
**A.** > 24.4 µM

**Q.** What about the TGI (NCI-H226 lung) of the same compound?
**A.** > 100 µM

**Q.** What about the GI50 (LOX IMVI melanoma) of the same compound?
**A.** 2.07 µM

**Q.** What about the TGI (LOX IMVI melanoma) of the same compound?
**A.** 17 µM

**Q.** And the GI50 (SK-OV-3 ovarian)?
**A.** 3.05 µM

**Q.** What about the TGI (SK-OV-3 ovarian) of the same compound?
**A.** > 100 µM

**Q.** What about the GI50 (SF-295 CNS) of the same compound?
**A.** 24.8 µM

**Q.** And the TGI (SF-295 CNS)?
**A.** > 83.9 µM

**Q.** And the GI50 (786-0 renal)?
**A.** 3.18 µM

**Q.** And the TGI (786-0 renal)?
**A.** > 100 µM

**Q.** What about the GI50 (KM12 colon) of the same compound?
**A.** > 85.4 µM

**Q.** What about the TGI (KM12 colon) of the same compound?
**A.** > 100 µM

**Q.** For `Nc1nc(-n2cccn2)nc(-n2cccn2)c1Br`, which GI50 (SR leukemia) is on record?
**A.** > 100 µM

**Q.** And the TGI (SR leukemia)?
**A.** > 100 µM

**Q.** And the GI50 (K-562 leukemia)?
**A.** > 100 µM

**Q.** What about the TGI (K-562 leukemia) of the same compound?
**A.** > 100 µM

**Q.** And the GI50 (A549 NSCLC)?
**A.** > 100 µM

**Q.** And the TGI (A549 NSCLC)?
**A.** > 100 µM

**Q.** What about the GI50 (HCC-2998 colon) of the same compound?
**A.** > 100 µM

**Q.** And the TGI (HCC-2998 colon)?
**A.** > 100 µM

**Q.** And the GI50 (NCI-H226 lung)?
**A.** > 100 µM

**Q.** And the TGI (NCI-H226 lung)?
**A.** > 100 µM

**Q.** What about the GI50 (LOX IMVI melanoma) of the same compound?
**A.** > 100 µM

**Q.** What about the TGI (LOX IMVI melanoma) of the same compound?
**A.** > 100 µM

**Q.** And the GI50 (SK-OV-3 ovarian)?
**A.** > 100 µM

**Q.** And the TGI (SK-OV-3 ovarian)?
**A.** > 100 µM

**Q.** And the GI50 (SF-295 CNS)?
**A.** > 100 µM

**Q.** What about the TGI (SF-295 CNS) of the same compound?
**A.** > 100 µM

**Q.** What about the GI50 (786-0 renal) of the same compound?
**A.** > 100 µM

**Q.** And the TGI (786-0 renal)?
**A.** > 100 µM

**Q.** What about the GI50 (KM12 colon) of the same compound?
**A.** > 100 µM

**Q.** And the TGI (KM12 colon)?
**A.** > 100 µM

**Q.** What does the source list for `COc1ccc(NC2=C(Sc3nc(C)cc(C)n3)C(=O)N(Cc3ccccc3)C2=O)cc1Cl`?
**A.** GI50 (SR leukemia): 37.5 µM; TGI (SR leukemia): > 160 µM; GI50 (K-562 leukemia): > 160 µM; TGI (K-562 leukemia): > 160 µM; GI50 (A549 NSCLC): > 160 µM; TGI (A549 NSCLC): > 160 µM; GI50 (HCC-2998 colon): > 160 µM; TGI (HCC-2998 colon): > 160 µM; GI50 (NCI-H226 lung): 39.5 µM; TGI (NCI-H226 lung): > 160 µM; GI50 (LOX IMVI melanoma): > 160 µM; TGI (LOX IMVI melanoma): > 160 µM; GI50 (SK-OV-3 ovarian): > 160 µM; TGI (SK-OV-3 ovarian): > 160 µM; GI50 (SF-295 CNS): 74.9 µM; TGI (SF-295 CNS): > 160 µM; GI50 (786-0 renal): 49.2 µM; TGI (786-0 renal): > 160 µM; GI50 (KM12 colon): > 160 µM; TGI (KM12 colon): > 160 µM

**Q.** For `CC[C@@]1(O)C(=O)NCc2c1cc1n(c2=O)Cc2cc3cc4c(cc3nc2-1)OCO4`, which GI50 (SR leukemia) is on record?
**A.** < 0.0176 µM

**Q.** And the TGI (SR leukemia)?
**A.** 0.2 µM

**Q.** What about the GI50 (K-562 leukemia) of the same compound?
**A.** 0.164 µM

**Q.** And the TGI (K-562 leukemia)?
**A.** > 100 µM

**Q.** What about the GI50 (A549 NSCLC) of the same compound?
**A.** 0.618 µM

**Q.** And the TGI (A549 NSCLC)?
**A.** > 73.4 µM

**Q.** And the GI50 (HCC-2998 colon)?
**A.** 0.984 µM

**Q.** What about the TGI (HCC-2998 colon) of the same compound?
**A.** > 89.1 µM

**Q.** What about the GI50 (NCI-H226 lung) of the same compound?
**A.** 2 µM

**Q.** What about the TGI (NCI-H226 lung) of the same compound?
**A.** > 85.1 µM

**Q.** And the GI50 (LOX IMVI melanoma)?
**A.** 0.296 µM

**Q.** And the TGI (LOX IMVI melanoma)?
**A.** 18.2 µM

**Q.** What about the GI50 (SK-OV-3 ovarian) of the same compound?
**A.** 1.5 µM

**Q.** And the TGI (SK-OV-3 ovarian)?
**A.** > 82.2 µM

**Q.** And the GI50 (SF-295 CNS)?
**A.** 0.148 µM

**Q.** What about the TGI (SF-295 CNS) of the same compound?
**A.** 25.7 µM

**Q.** And the GI50 (786-0 renal)?
**A.** 0.672 µM

**Q.** What about the TGI (786-0 renal) of the same compound?
**A.** 14.4 µM

**Q.** And the GI50 (KM12 colon)?
**A.** 11.7 µM

**Q.** And the TGI (KM12 colon)?
**A.** > 100 µM
